Test results from article PMC7956476, “Quinoline Functionalized Schiff Base Silver (I) Complexes: Interactions with Biomolecules and In Vitro Cytotoxicity, Antioxidant and Antimicrobial Activities” (Molecules, 2021).
Where two headings read alike, the source gives them in different places.

Legend:
calf thymus DNA (CT-DNA) = assay: CT-DNA electronic absorption titration (Wolfe–Shimer); format: binding
Experimental: The interaction of the L1–L5 and complexes Q1–Q15 with calf thymus-DNA was carried out in a Phosphate buffer saline solution pH 7.2 stored at 4 °C. The DNA stock solution was prepared by dissolving CT-DNA sodium salt in Phosphate buffer saline solution with continuous stirring overnight. It was filtered and stored at 4 °C and used within four days. […] A fixed amount of the L1–L5 and complexes Q1–Q15 (50 µM) were prepared by dissolving an appropriate amount in DMSO. […] Therefore, in all the experimental of the interaction of L1–L5 and complexes Q1–Q15 with biomolecules, the final concentration of DMSO in the incubation mixture was ~2% (v/v).
The binding modes of L1–L5 and complexes Q1–Q15 to CT-DNA were characterized through electronic absorption titration by varying concentrations of CT-DNA (0–30 µM) in phosphate buffer saline solution against fixed concentrations (20 µM) of L1–L5 and complexes Q1–Q15. […] The absorbance of CT-DNA is cancelled by adding equivalent amounts of CT-DNA to both the tested compounds and the reference solutions.

[1] = molecular target: bovine serum albumin (BSA) (Bos taurus, UniProt P02769); assay: Albumin binding by absorption spectroscopy titration
From the text: Bovine serum albumin (BSA) was used as the protein standard in this study because of its close resemblance to human serum albumin (HSA), its stability, high solubility, neutrality in many biochemical reactions and low cost. In protein binding study, absorption spectroscopy titration is a known method used in studying the conformational changes in proteins, and this protein is characterized by an intense absorbance peak at 280 nm depicting the microenvironment around tyrosine and tryptophan residue polarity.
The absorbance assay of albumin binding is a very simple method used in identifying the conformational changes in protein. […] A stock solution of bovine serum albumin (BSA) was prepared by dissolving an appropriate amount of BSA in phosphate buffer saline solution (pH 7.2) under constant stirring for 1 h at 25 °C. It was kept at 4 °C and used within four days. […] The stock solution of the complex was prepared by dissolving 1 mmol of the complexes in DMSO. The absorption titration assay was done by adding different concentrations (0–10 µM) of the complexes to a constant BSA concentration (6 µM). The sample solution was incubated after each addition of the concentrations for 10 min at 25 °C before recording the absorbance at λmax 280 nm.

[2] = Ferric reducing antioxidant power (FRAP) assay; format: biochemical; conditions: done in triplicate
From the text: Antioxidants are important in protecting the human body against damage by reactive oxygen species (ROS). Accumulation of ROS in the cells may lead to damage of the DNA, RNA, and proteins which subsequently leads to several physiological disorders such as cardiovascular disease, diabetes, rheumatism, atherosclerosis, cancer, aging and cell death. […] The free radical scavenging ability of all ligands and complexes in this study were investigated using ferric reducing antioxidant power (FRAP). In antioxidant studies, FRAP assay is often preferred because it is simple, fast, economical, and direct in antioxidant measurement. FRAP assay is based on the electron-donating ability of an antioxidant compound. This involves the reduction of a colorless Fe^3+ tripyridyltriazine complex (Fe^3+ (TPTZ)) to an intense blue-colored Fe^2+ tripyridyltriazine complex (Fe^2+ (TPTZ)) by the electron-donating antioxidants at low pH [69]. The reducing power is to determine the reductive ability of the test compounds.
Antioxidant activity studies of L1–L5 and Q1–Q15 were done using ferric reducing antioxidant power (FRAP) assay. The ferric reducing antioxidant power assay is often used to evaluate the ability of an antioxidant to donate an electron. […] The resulting mixture was incubated at 50 °C for 20 min, and 2.5 mL of 10% trichloroacetic acid was added to acidify the mixture. After that, 1 mL of the acidified mixture was added to 1 mL of distilled water and 0.5 mL of 0.1% FeCl3. The absorbance of the resulting solution was then measured at 700 nm. The antioxidant power of the compounds was expressed as a percentage of ferric reducing antioxidant power Ascorbic acid equivalent, as shown in Equation (4). (4) % FRAP =Absorbance of Absorbance of Sample/Absorbance of Ascorbic Acid ×100

[3] = test system: Pseudomonas aeruginosa ATCC 27853; assay: Minimum inhibitory concentration (MIC), spotting on Müeller–Hinton agar; format: cell-based; conditions: Gram − Ve; P. aeruginosa; 37 °C, 18 h
Experimental: (§1) Sterilized Nutrient agar medium was first prepared by dissolving 38 g of Müeller–Hinton agar (MHA) (Biolab, Midrand, Africa) in distilled water (1 L). […] The cooled Agar medium was poured in Petri dishes while ensuring a uniform 4 mm depth of the medium and cooling further to ambient temperature.
(§2) These bacteria were inoculated in a sterilized Nutrient Broth (NB) (Biolab, Midrand, Africa) through streak plate technique and incubated at 37 °C for 18 h. The nutrient broth was sterilized by dissolving 1.3 g in distilled water (100 mL). Ca. 10 mL of the nutrient broth was transferred into a cotton wool-plugged test tubes and wrapped with an aluminium foil. […] Following this was the isolation of a single colony of the bacteria and inoculated into a 10 mL sterile NB which was then incubated in a shaking incubator at 37 °C for 18 h. Each of the bacteria strain concentrations was adjusted with sterile distilled water to get a final concentration of 1.5 × 10^8 cfu/mL, i.e., 0.5 Mc Farland’s Standard using a densitometer (Mc Farland Latvia). The bacteria were lawn inoculated on the set MHA Petri dishes using a sterile cotton swab. Screening of L1–L5 and Q1–Q15 for antibacterial activity was first carried out by spotting 5 µL of their solution (prepared from the dissolution of 1000 µg of the L1–L5 and Q1–Q15 in 1 mL dimethyl sulfoxide (DMSO)) on an MHA petri dish and incubated at 37 °C for 18 h. The antibacterial activity was determined by looking out for a clear zone at the spotting point.

[4] = test system: Salmonella typhimurium ATCC 14026; assay: as above; format: cell-based; conditions: Gram − Ve; S. typhi; 37 °C, 18 h
Experimental: as §1, §2

[5] = test system: Staphylococcus aureus ATCC 25923; assay: as above; format: cell-based; conditions: Gram + Ve, S. aureus, 37 °C, 18 h
Experimental: as §1, §2

[6] = test system: Staphylococcus aureus ATCC 700699 (methicillin-resistant); assay: as above; format: cell-based; conditions: Gram + Ve; methicillin-resistant S. aureus; 37 °C, 18 h
Experimental: as §1, §2

[7] = test system: Escherichia coli ATCC 25922; assay: as above; format: cell-based; conditions: Gram − Ve, E. coli, 37 °C, 18 h
Experimental: as §1, §2

CT-DNA-EB adduct = assay: Fluorescence competitive displacement of ethidium bromide from CT-DNA; format: binding, calf; conditions: for CT-DNA-EB-Complex Ksv (M^−1) × 10^4: Stern–Volmer quenching constant, EB displacement, 25 °C; for CT-DNA-EB-Complex Kq (M^−1S^−1) × 10^12: bimolecular quenching constant, Ksv = Kqτo, τo 10^−8 s; for CT-DNA-EB-Complex Kbin (M^−1) × 10^5: binding constant from double-logarithmic plot
From the text: The Stern–Volmer plot approach was used based on the fact that the Stern–Volmer plots for Q1–Q15 (Figure 5c), were linear an indication of only one mechanism for the quenching fluorescence, i.e., either dynamic or static. […] (1) Ksv=Kqτo where Ksv, Kq, and τo represent Stern–Volmer quenching constant, bimolecular quenching constant, and an average lifetime of the fluorophore in the absence of the quencher, respectively. τₒ normally takes about 10^−8 s in biomacromolecules.
The double-logarithmic Equation (2) was used in determining the binding constant of complexes Q1–Q15 and CT-DNA. (2) logFo−F/F=logKb+n logQ
A competitive displacement study was carried out using fluorescence spectroscopy between CT-DNA pre-treated with ethidium bromide (EB) and complexes Q1–Q15 to establish the complexes′ actual mode of binding to CT-DNA. […] The competitive luminescence displacement assay was done using a modified method. Pre-treated 15 µM solution of EB with 15 µM of CT-DNA was prepared in a phosphate buffer of pH 7.2 and left to equilibrate for 30 min. Keeping CT-DNA-EB concentrations constant, different concentrations (0–20 µM) of the complexes were added at 8 min incubation interval at room temperature. The fluorescence quenching ability of CT-DNA bound EB by the complexes were recorded in the wavelength range of 530–700 nm with an excitation wavelength at 525 nm at 25 °C. (6) Fo/F=1+KSVQ=1+KqτoQ
A Stern–Volmer (Equation (6)) was used to evaluate the CT-DNA-EB fluorescence quenching of the complexes. Where Fo and F denote the relative fluorescence intensities of CT-DNA in the absence and presence of the quencher, Ksv, Stern–Volmer quenching constant, [Q], quencher concentration, Kq, bimolecular quenching constant and τo, average lifetime of the fluorophore in the absence of the quencher which is typically equal to 10^−8 s in biomacromolecules.

[8] = intrinsic binding constant, absorption titration, PBS pH 7.2

bovine serum albumin (BSA), sequence (P02769 25-607): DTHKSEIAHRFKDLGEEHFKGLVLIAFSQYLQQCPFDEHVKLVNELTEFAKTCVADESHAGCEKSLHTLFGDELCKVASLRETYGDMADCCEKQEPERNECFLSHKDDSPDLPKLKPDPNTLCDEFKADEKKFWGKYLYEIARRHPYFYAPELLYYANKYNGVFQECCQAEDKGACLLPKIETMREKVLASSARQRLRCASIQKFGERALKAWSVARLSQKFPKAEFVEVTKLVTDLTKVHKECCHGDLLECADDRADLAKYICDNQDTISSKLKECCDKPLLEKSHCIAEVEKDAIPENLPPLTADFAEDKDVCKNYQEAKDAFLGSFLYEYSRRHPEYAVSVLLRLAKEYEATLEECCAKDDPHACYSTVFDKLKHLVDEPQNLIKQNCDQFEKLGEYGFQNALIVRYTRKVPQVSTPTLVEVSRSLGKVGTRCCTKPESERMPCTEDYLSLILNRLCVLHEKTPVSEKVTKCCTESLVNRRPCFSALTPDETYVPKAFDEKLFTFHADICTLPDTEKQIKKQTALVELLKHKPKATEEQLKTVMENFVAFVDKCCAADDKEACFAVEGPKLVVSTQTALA

| Structure (SMILES) | CT-DNA-Cmp. Kb (M^−1) × 10^5 (calf thymus DNA (CT-DNA); [8]) | Protein-Complex Kb (M^−1) × 10^4 [1] | Antioxidant (IC50 mg/mL) FRAP [2] | Minimum inhibitory concentration, PA [3] | Minimum inhibitory concentration, ST [4] | Minimum inhibitory concentration, SA [5] | Minimum inhibitory concentration, MRSA [6] | Minimum inhibitory concentration, EC [7] | CT-DNA-EB-Complex Ksv (M^−1) × 10^4 (CT-DNA-EB adduct) | CT-DNA-EB-Complex Kq (M^−1S^−1) × 10^12 (CT-DNA-EB adduct) | CT-DNA-EB-Complex Kbin (M^−1) × 10^5 (CT-DNA-EB adduct) | CT-DNA-Cmp. Kb (M^−1) × 10^5 (calf thymus DNA (CT-DNA); pH 7.2) | MIC ([5]; Staphylococcus aureus, ATCC25923, read-out: Minimum inhibitory concentration, SA) | MIC ([7]; Escherichia coli, ATCC25922, read-out: Minimum inhibitory concentration, EC) | hypochromic shift in the absorption bands on addition of CT-DNA (calf thymus DNA (CT-DNA); absorption titration with CT-DNA) | Protein-Complex Kb (M^−1) × 10^4 ([1]; BSA absorption titration, 280 nm, 25 °C) |
| --- | --- | --- | --- | --- | --- | --- | --- | --- | --- | --- | --- | --- | --- | --- | --- | --- |
| Cc1ccc(N=Cc2ccc3ccccc3n2)cc1.Cc1ccc(N=Cc2ccc3ccccc3n2)cc1.O=S(=O)([O-])C(F)(F)F.[Ag+] [Complex Q14, [Ag(L4)2]CF3SO3] | 3.33 (M^−1) × 10^5 | 7.50 (M^−1) × 10^4 | 3.55 ± 0.022 mg/mL | ~0.8 µg/mL | 50 µg/mL | 50 µg/mL | 1000 µg/mL | 25 µg/mL | 2.98 (M^−1) × 10^4 | 2.98 (M^−1S^−1) × 10^12 | 5.31 (M^−1) × 10^5 | – | – | – | – | – |
| O=[N+]([O-])[O-].[Ag+] [AgNO3, silver nitrate, reference compound] | – | 4.49 (M^−1) × 10^4 | 1.43 ± 0.03 mg/mL | 12.5 µg/mL | 1000 µg/mL | 3.125 µg/mL | 0.2 µg/mL | 0.8 µg/mL | 3.12 (M^−1) × 10^4 | 3.12 (M^−1S^−1) × 10^12 | 4.50 (M^−1) × 10^5 | 3.00 (M^−1) × 10^5 | – | – | – | – |
| Fc1ccccc1/N=C/c1ccc2ccccc2n1 [Complex L1, (E)-N-(2-fluorophenyl)-1-(quinolin-2-yl)methanimine] | 1.38 (M^−1) × 10^5 | – | 22.42 ± 0.0048 mg/mL | – | – | – | – | – | – | – | – | – | 100 µg/mL | 1000 µg/mL | – | – |
| [Ag+].[O-][Cl+3]([O-])([O-])[O-] [AgClO4, silver perchlorate, reference compound] | 3.30 (M^−1) × 10^5 | – | 0.88 ± 0.051 mg/mL | 0.8 µg/mL | 0.2 µg/mL | 3.125 µg/mL | 6.25 µg/mL | 25 µg/mL | 3.31 (M^−1) × 10^4 | 3.31 (M^−1S^−1) × 10^12 | 6.00 (M^−1) × 10^5 | – | – | – | 23.64–50.86% | 4.82 (M^−1) × 10^4 |
| O=S(=O)([O-])C(F)(F)F.[Ag+].c1ccc2nc(-c3nc4ccccc4s3)ccc2c1.c1ccc2nc(-c3nc4ccccc4s3)ccc2c1 [Complex Q12, [Ag(L2)2]CF3SO3] | 4.50 (M^−1) × 10^5 | 20.7 (M^−1) × 10^4 | 1.86 ± 0.024 mg/mL | 12.5 µg/mL | 50 µg/mL | – | 50 µg/mL | 25 µg/mL | 3.14 (M^−1) × 10^4 | 3.14 (M^−1S^−1) × 10^12 | 2.12 (M^−1) × 10^5 | – | – | – | – | – |
